Experimental data from patent US20200247808A1, “Heterocyclic Tec-Family Kinase Inhibitors” (GB005, Inc., priority 2015, published 2020).
“Also recorded” adds a separate entry of the source.

How the values were obtained:
human ErbB2 = target: T1, human ErbB2 (Homo sapiens, UniProt P04626); assay: ErbB2 kinase inhibition, KinaseProfiler radiometric protein kinase assay (Eurofins); type: biochemical; conditions: 40 min room temperature
T1 construct: purchased Eurofins Pharma Discovery Services UK Limited (contract assay, KinaseProfiler)
T1 sequence (P04626 23-1255): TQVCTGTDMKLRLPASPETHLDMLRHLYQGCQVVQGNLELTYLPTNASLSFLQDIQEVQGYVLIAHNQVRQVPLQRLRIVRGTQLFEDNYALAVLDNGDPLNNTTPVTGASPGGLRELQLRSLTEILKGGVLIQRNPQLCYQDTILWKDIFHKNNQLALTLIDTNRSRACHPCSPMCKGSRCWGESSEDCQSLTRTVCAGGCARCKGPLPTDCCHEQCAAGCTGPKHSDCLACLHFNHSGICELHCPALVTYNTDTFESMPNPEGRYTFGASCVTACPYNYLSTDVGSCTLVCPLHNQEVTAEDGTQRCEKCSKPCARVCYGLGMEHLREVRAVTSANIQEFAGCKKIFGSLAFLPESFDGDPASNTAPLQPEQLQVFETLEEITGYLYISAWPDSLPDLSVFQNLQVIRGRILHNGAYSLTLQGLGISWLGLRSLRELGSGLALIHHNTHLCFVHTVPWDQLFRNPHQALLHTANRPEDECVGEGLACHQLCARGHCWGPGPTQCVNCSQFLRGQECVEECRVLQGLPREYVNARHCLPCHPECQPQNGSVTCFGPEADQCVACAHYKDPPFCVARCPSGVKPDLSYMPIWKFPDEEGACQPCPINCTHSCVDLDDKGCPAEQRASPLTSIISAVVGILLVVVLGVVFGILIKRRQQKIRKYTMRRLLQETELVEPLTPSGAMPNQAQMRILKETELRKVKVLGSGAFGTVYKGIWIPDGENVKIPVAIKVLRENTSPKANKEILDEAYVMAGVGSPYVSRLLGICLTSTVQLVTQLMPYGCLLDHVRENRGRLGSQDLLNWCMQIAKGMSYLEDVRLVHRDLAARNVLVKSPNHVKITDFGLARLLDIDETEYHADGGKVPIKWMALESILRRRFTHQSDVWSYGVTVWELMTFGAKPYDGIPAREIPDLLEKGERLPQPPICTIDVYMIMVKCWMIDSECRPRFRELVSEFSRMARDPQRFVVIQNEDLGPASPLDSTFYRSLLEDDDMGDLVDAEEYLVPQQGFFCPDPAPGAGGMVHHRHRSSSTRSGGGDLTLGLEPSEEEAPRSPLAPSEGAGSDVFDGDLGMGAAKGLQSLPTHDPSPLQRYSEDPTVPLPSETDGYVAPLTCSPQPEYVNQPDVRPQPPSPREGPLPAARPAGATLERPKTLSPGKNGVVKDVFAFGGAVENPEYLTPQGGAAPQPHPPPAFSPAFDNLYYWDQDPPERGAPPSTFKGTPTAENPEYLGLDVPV
Protocol: In vitro potency of selected compound was defined against human BTK, EGFR, and ErbB2 kinases using Kinase Profiler radiometric protein kinase assays performed at Eurofins Pharma Discovery Services UK Limited.
Each kinase is diluted in buffer and all compounds were prepared to 50x final assay concentration in 100% DMSO. This working stock of the compound was added to the assay well as the first component in the reaction, followed by the remaining components as detailed in the assay protocol listed above. The reaction was initiated by the addition of the MgATP mix. […] (specific activity approx. 500 cpm/pmol, concentration as required) and variable test article concentrations. […] The reaction was stopped by the addition of 3% phosphoric acid solution. 10 μL of the reaction is then spotted onto a P30 filtermat and washed three times for 5 minutes in 75 mM phosphoric acid and once in methanol prior to drying and scintillation counting. […] This abolishes kinase activity and establishes the base-line (0% kinase activity remaining). The potency of each compound was reported by estimating the EC50.

[1] = Formation of glutathione adducts (GSH reactivity, HPLC-UV); type: in vitro ADME; conditions: 10 mM GSH, 20 micromolar test article, pH 7.4, 37° C.
Protocol: Generation of non-specific thiol adducts can be measured by assaying reactivity of compounds with GSH. Formation of GSH adducts was measured by incubating GSH (10 mM) in 100 mM Phosphate Buffer pH 7.4 with test article at 20 micromolar final concentration. Briefly, 600 microliters of phosphate buffer pH 7.4 was added in a glass vial with 200 microliters of 100 micromolar test article in DMSO. Samples were warmed at 37° C. for 10 minutes and the reaction was initiated by the addition of 200 microliters of 50 mM reduced GSH in phosphate buffer pH 7.4 and incubated at 37° C. At various time points (0.5 min, 5 min, 15 min, 30 min, 60 min, 120 min and 180 min) 50 microliter aliquots were placed into an injection vial equipped with an insert and mixed with 50 microliters of 1% formic acid in 99% Methanol. Vials were loaded onto the HPLC injection tray and each sample was injected onto a C18 column (ACE 3 C18, 4.6×50 mm column) and both the parent and product were monitored by UV absorbance at 254 nm on an Agilent Technologies 1100 series HPLC. Peaks were integrated and the percentage of product present calculated as the percent of the total peak area on the parent and product at 60 minutes.

[2] = system: immune complex mediated vasculitis; assay: Mouse Arthus (immune complex mediated acute vasculitis); type: in vivo, mouse (Balb/c); conditions: mice; for Suppression of immune complex mediated vasculitis: oral gavage 10 mg/kg, 1 h pre-treatment, Evan's blue extravasation at 4 h
Protocol: Formation and reaction to immune complexes is characteristic of antibody mediated autoimmune and inflammatory disease. BTK is important in signaling pathways downstream of Fc receptor stimulation which can be modeled by immune complex mediated acute vasculitis. Mouse studies were conducted as reported in Braselmann S, et al. J Pharmacol Exp Ther, 2006, 319:998-1008.
In summary, female Balb/c mice (6-7 weeks on arrival) were habituated to the animal facility for at least 4 days. On the day of the experiment, animals were pre-treated (t=minus 1 h) with compound or vehicle alone by gavage (PO). At t=0, animals were injected intravenously (IV; 0.1 mL/mouse) with saline containing chicken ovalbumin and Evan's blue (10 mg/mL of each). Ten minutes later (t=10 min), animals were anesthesized with isoflurane, the dorsal surface was shaved and rabbit anti-chicken ovalbumin antibody was then injected intradermally at one site on the right side of the animal (25 μg in 30 μL). The same amount of isotype control antibody was then injected on the left side.
The animals were then returned to their home cage and skin punches (8 mm) were collected from each injection site four hours later. The samples were placed in 1 mL formamide overnight at 80° C. (1 skin biopsy per 1 mL formamide in a glass tube). The amount of Evan's blue in the formamide solution was then assessed by spectrophotometry (630 nm) as a measure of serum extravasation into the dermis.

[3] = system: TMD-8 xenograft B-cell lymphoma; assay: Antitumor activity study, TMD-8 xenograft; type: in vivo, mouse (Scid); conditions: Scid mice, once daily oral gavage from d21
Protocol: Female C.B-17/IcrHsd-PrkdcsidLystbg-J mice (Scid mice; Harlan, 6-8 wk on delivery) were used for these studies. The mice were housed 4 per cage in a ventilated rack in a room under controlled conditions of temperature (20-25° C.) and humidity (40-70%), with a 12 h dark/light cycle. The animals were fed ad libitum with irradiated rodent diet (Harlan) and received autoclaved tap water. The cage, bedding and enrichment materials inside the home cage were autoclaved prior to use and all cage and animal manipulations were carried out inside a sterile laminar flow hood. Animals were acclimated for 1 week prior to cell injection.
TMD-8 human activated B cell diffuse large B cell lymphoma cells were grown in HyClone RPMI supplemented with 10% FBS (Fisher)/1% Penicillin/Streptomycin (HyClone) at 37° C., 5% CO2 and then prepared for injection. […]
When the mean tumor volume reached 200-300 mm^3 (d21) mice were randomized into groups of 10 based on tumor size and treatment was initiated. […] General condition and BW of all mice was assessed daily and tumor measurements collected twice per week (Mon and Thur). […]
The long (a) and short (b) axis of tumors were measured with electronic calipers (Mitutoyo) and tumor volume (mm^3) was calculated (a*b^2/2) and temporal changes in tumor volume and body weight were assessed day 21 (d21) to […].

EGFR = EGFR (Homo sapiens, UniProt P00533); assay: Inhibition of cellular EGFR (EGF-stimulated EGFR autophosphorylation in MDA-468 cells); type: cell-based; design: MDA-468 human breast tumor cells which express functional EGFR; endogenous in cells; host or cells: MDA-468 human breast tumor cells; conditions: 1 h pretreatment, 10 ng/mL EGF 5 min, phospho-EGFR/EGFR ratio
EGFR, sequence (P00533 25-1210): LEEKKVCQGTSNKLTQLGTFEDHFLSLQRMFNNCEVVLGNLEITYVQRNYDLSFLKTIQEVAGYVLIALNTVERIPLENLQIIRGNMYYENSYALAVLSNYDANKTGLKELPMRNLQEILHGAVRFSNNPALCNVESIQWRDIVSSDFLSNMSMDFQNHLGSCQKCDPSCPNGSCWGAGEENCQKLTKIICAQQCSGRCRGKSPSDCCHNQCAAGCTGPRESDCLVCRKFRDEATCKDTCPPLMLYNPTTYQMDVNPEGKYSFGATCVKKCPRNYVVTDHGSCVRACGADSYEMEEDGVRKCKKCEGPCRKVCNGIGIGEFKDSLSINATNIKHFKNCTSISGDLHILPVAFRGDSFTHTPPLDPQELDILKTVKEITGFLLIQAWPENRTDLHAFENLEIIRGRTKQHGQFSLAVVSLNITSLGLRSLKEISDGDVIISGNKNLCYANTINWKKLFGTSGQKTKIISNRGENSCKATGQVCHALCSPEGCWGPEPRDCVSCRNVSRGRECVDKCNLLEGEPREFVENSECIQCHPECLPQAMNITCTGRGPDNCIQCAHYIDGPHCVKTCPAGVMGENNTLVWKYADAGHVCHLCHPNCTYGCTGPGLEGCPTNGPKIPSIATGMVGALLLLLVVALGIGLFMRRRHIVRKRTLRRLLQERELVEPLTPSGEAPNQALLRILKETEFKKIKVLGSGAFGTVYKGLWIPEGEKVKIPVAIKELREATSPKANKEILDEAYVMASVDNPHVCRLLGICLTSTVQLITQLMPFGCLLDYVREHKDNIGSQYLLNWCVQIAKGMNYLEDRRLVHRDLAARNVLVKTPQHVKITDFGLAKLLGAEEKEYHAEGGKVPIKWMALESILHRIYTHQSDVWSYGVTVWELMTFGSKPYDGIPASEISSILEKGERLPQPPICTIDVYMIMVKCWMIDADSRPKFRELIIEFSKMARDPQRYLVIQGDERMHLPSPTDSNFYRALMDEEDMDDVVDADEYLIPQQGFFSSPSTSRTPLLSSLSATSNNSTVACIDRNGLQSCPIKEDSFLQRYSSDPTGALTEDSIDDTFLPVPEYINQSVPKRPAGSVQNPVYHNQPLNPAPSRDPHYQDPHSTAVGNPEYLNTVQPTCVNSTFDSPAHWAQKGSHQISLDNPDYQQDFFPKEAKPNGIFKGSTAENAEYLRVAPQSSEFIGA
Protocol: Cells were plated at a densitity of 400 000 cells/well in 6×12-well plates in a final volume of 1 ml/well in DMEM high glucose+10% FBS +1% Pen/Strep and cultured at 37 C and 5% CO2 overnight. The following day the media was replaced with serum free media and the cells were cultured for a further 24 hours.
Cells were pretreated with compound for 1 hour and then stimulated with 10 ng/mL EGF for 5 minutes. Media was removed and cells were lysed in 100 uL/well of RIPA buffer+1% Protease Inhibitor cocktail+1% Phosphatase inhibitor cocktail. Protein concentrations were determined by
BCA assay. 25μ of cellular protein from each cell treatment was separated by SDS-PAGE. Proteins were transferred to nitrocellulose membranes and blocked with TBS-T+5% non-fat milk. EGFR and phospho-EGFR were detected following incubation overnight at 4° C. with Rabbit anti-phospho-EGFR (Tyr1068) (Cell signaling) diluted 1/1000 and Mouse anti-EGFR (1F4) (Cell signaling) diluted 1/1000 in TBS-T+5% nonfat dry milk and then incubation for 1 h at RT with IR Dye 800CW goat anti-rabbit diluted 1/15000 and with IR Dye 680RD goat anti-mouse diluted 1/15000 in TBS-T+5% nonfat dry milk+0.01% SDS. Antibody binding was quatified using a Li-cor Odyssey CLx. Phospho-EGFR/EGFR ratios were calculated for each test condition of control and test article and the EC50 of inhibiton of EGF-stimulated EGFR phosphorylation was calculated.

Row | Compound | IC50 (human ErbB2) [nM] | GSH Reactivity GSH Conjugate at 60 minutes [1] | Effect on immune complex-mediated vasculitis (FIG. 3, in words) [2] | Suppression of immune complex mediated vasculitis [2] [%] | Effect on TMD-8 xenograft tumor growth [3] | EC50 (EGFR) [nM]
1 | CC#CC(=O)N[C@H]1C[C@@H](n2nc(-c3ccc(Oc4ccccc4)cc3)c3c(N)ncnc32)C1 [Compound 1] | > 1000 | 7.3 % of total Peaks | inhibit immune complex-mediated vasculitis | 87 | reduce growth of TMD-8 xenograft B-cell lymphoma; also recorded: reduce tumor growth | 5960
2 | C=CC(=O)N[C@H]1C[C@@H](n2nc(-c3ccc(Oc4ccccc4)cc3)c3c(N)ncnc32)C1 [Compound 2] | 97 | 14.2 % of total Peaks | inhibit immune complex-mediated vasculitis | 94 | reduce growth of TMD-8 xenograft B-cell lymphoma; also recorded: reduce tumor growth | 376
